This is an account of results in US20090270350A1, “Pyridinone Pyrazole Urea and Pyrimidinone Pyrazole Urea Derivatives” (PFIZER INC., priority 2006, published 2009).

Data set [1] deals with p38α (Homo sapiens, UniProt Q16539). Briefly: p38α/MK2 cascade assay. It is filed as biochemical. The note with it: Table 1; inhibitors preincubated with p38α for 40 minutes; phosphorylation of Hsp27 peptide by MK-2, Caliper LabChip 3000; read-out: p38a/MK2 Cascade 40 min Pre-Incuabtion (% Inhibition): IC50. Summed up: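 In a cascade format, p38α was preincubated 40 min with inhibitor (1000–0.05 nM) before adding 1 nM nonactive MK2 (54-400), 5 μM MgATP and 0.5 μM FITC-Hsp27 peptide. Reaction ran 60 min in HEPES pH 7.5 with MgCl2, DTT, 2% DMSO, then EDTA-quenched. Peptide phosphorylation was measured by Caliper mobility shift to give IC50.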
Chain of p38α (Q16539 whole entry): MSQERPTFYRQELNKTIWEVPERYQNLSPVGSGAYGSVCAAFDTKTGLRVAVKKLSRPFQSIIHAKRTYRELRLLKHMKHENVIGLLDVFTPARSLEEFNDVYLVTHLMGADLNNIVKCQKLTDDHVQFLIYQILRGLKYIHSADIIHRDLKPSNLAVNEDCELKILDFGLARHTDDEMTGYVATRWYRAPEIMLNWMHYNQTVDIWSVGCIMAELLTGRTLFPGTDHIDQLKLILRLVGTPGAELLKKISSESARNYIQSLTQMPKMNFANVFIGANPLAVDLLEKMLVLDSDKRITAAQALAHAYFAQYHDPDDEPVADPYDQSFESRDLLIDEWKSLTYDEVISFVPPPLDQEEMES

`Cc1ccc(C(=O)NC(C)C(N)=O)cc1-n1c(C)cc(OCc2ccccc2CNC(=O)Nc2cc(C(C)(C)C)nn2-c2ccc(O)c(Cl)c2)c(Cl)c1=O` (stereo in doubt) [Example 159, (R)-3-[4-(2-{3-[5-tert-butyl-2-(3-chloro-4-hydroxy-phenyl)-2H-pyrazol-3-yl]-ureidomethyl}-benzyloxy)-3-chloro-6-methyl-2-oxo-2H-pyridin-1-yl]-N-(1-carbamoyl-ethyl)-4-methyl-benzamide]: the melting point (in general, the temperature of the solid-liquid transition) is 192 to 193 °C. In addition, the IC50 in data set [1] is 2.5 nM.

As to `CNC(=O)CNC(=O)c1ccc(C)c(-n2c(C)cc(OCc3ccccc3CNC(=O)Nc3cc(C(C)(C)C)nn3-c3ccc(O)c(Cl)c3)c(Cl)c2=O)c1` [Example 156, 3-[4-(2-{3-[5-tert-butyl-2-(3-chloro-4-hydroxy-phenyl)-2H-pyrazol-3-yl]-ureidomethyl}-benzyloxy)-3-chloro-6-methyl-2-oxo-2H-pyridin-1-yl]-4-methyl-N-methylcarbamoylmethyl-benzamide], the melting point lay within 209 to 211 °C. The IC50 in data set [1] is 3.5 nM.

`CNC(=O)CNC(=O)c1ccc(C)c(-n2c(C)cc(OCc3ccccc3CNC(=O)Nc3cc(C(C)(C)C)nn3-c3ccc(Cl)c(O)c3)c(Cl)c2=O)c1` [Example 167, 3-[4-(2-{3-[5-tert-Butyl-2-(4-chloro-3-hydroxy-phenyl)-2H-pyrazol-3-yl]-ureidomethyl}-benzyloxy)-3-chloro-6-methyl-2-oxo-2H-pyridin-1-yl]-4-methyl-N-methylcarbamoylmethyl-benzamide] yielded a melting point of 179 to 181 °C. The IC50 in data set [1] is 1.7 nM.

In turn, `CNC(=O)c1ccc(C)c(-n2c(C)cc(OCc3ccc(F)cc3CNC(=O)Nc3cc(C(C)(C)C)nn3-c3ccc(O)c(Cl)c3)c(Cl)c2=O)c1` [Example 169, 3-[4-(2-{3-[5-tert-butyl-2-(3-chloro-4-hydroxy-phenyl)-2H-pyrazol-3-yl]-ureidomethyl}-4-fluoro-benzyloxy)-3-chloro-6-methyl-2-oxo-2H-pyridin-1-yl]-4,N-dimethyl-benzamide] gave a melting point of 177 to 180 °C.

Compound `COCCNC(=O)c1ccc(C)c(-n2c(C)cc(OCc3ccccc3CNC(=O)Nc3cc(C(C)(C)C)nn3-c3cccc(OCCO)c3)c(Cl)c2=O)c1` [Example 173] returned a melting point of 143 to 145 °C.

On to `Cc1ccc(C(=O)NCCN(C)C)cc1-n1c(C)cc(OCc2ccccc2CNC(=O)Nc2cc(C(C)(C)C)nn2-c2cccc(OCCO)c2)c(Cl)c1=O` [Example 174], for which the melting point lay within 164 to 165 °C.

The compound `Cc1ccc(C(=O)NCCN(C)C)cc1-n1c(C)cc(OCc2ccc(F)cc2CNC(=O)Nc2cc(C(C)(C)C)nn2-c2cccc(OCCO)c2)c(Cl)c1=O` [Example 178] showed a melting point of 158 to 160 °C. The IC50 in data set [1] turned out to be 1.4 nM.

In turn, `Cc1ccc(C(=O)OCCO)cc1-n1c(C)cc(OCc2ccc(F)cc2CNC(=O)Nc2cc(C(C)(C)C)nn2-c2cccc(OCCO)c2)c(Cl)c1=O` [Example 180, 3-{4-[2-(3-{5-tert-butyl-2-[3-(2-hydroxy-ethoxy)-phenyl]-2H-pyrazol-3-yl}-ureidomethyl)-4-fluoro-benzyloxy]-3-chloro-6-methyl-2-oxo-2H-pyridin-1-yl}-4-methyl-benzoic acid 2-hydroxy-ethyl ester] came in with a melting point of 180 to 181 °C.
